Experimental data from patent US10112937B2, “P2X7 modulators and methods of use” (Janssen Pharmaceutica NV, priority 2013, dated 2018).

Legend:
human P2X7 [1] = biological target: T1, human P2X7 (Homo sapiens (Human), UniProt Q99572); test: Ca2+ flux (FLIPR) in 1321N1 cells expressing recombinant human P2X7; assay type: cell-based;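 further: cells loaded with Calcium-4 dye, preincubated with test compound for 30 min, fluorescence change read 180 s after agonist addition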
Experimental: (§1) P2X7 Antagonism in Recombinant Human P2X7 Cells or Recombinant Rat P2X7 Cells: (a) Ca^2+ Flux and (b) Radioligand Binding
(§2) 1321N1 cells expressing the recombinant human or rat P2X7 channel was cultured in HyQ DME/(HyClone/Dulbecco's Modified Eagle Medium) high glucose supplemented with 10% Fetal Bovine Serum (FBS) and appropriate selection marker. Cells were seeded at a density of 25000 cells/well (96-well clear bottom black walled plates) in 100 μl volume/well. On the day of the experiment, cell plates were washed with assay buffer, containing (in mM): 130 NaCl, 2 KCl, 1 CaCl2, 1 MgCl2, 10 HEPES, 5 glucose; pH 7.40 and 300 mOs. After the wash, cells were loaded with the Calcium-4 dye (Molecular Device) and incubated in the dark for 60 minutes. Test compounds were prepared at 250× the test concentration in neat DMSO. Intermediate 96-well compound plates were prepared by transferring 1.2 μL of the compound into 300 μL of assay buffer. A further 3× dilution occurred when transferring 50 μL/well of the compound plate to 100 μL/well in the cell plate. Cells were incubated with test compounds and dye for 30 minutes. […] The fluorescence change was measured 180 seconds after adding the agonist.

rat P2X7 [2] = biological target: T2, rat P2X7 (Rattus norvegicus (Rat), UniProt Q64663); test: Radioligand binding ([3H]A-804598), rat P2X7-1321N1 cell membranes; settings: rat P2X7-1321N1 membranes, tritiated A-804598
T2 sequence (Q64663 whole entry): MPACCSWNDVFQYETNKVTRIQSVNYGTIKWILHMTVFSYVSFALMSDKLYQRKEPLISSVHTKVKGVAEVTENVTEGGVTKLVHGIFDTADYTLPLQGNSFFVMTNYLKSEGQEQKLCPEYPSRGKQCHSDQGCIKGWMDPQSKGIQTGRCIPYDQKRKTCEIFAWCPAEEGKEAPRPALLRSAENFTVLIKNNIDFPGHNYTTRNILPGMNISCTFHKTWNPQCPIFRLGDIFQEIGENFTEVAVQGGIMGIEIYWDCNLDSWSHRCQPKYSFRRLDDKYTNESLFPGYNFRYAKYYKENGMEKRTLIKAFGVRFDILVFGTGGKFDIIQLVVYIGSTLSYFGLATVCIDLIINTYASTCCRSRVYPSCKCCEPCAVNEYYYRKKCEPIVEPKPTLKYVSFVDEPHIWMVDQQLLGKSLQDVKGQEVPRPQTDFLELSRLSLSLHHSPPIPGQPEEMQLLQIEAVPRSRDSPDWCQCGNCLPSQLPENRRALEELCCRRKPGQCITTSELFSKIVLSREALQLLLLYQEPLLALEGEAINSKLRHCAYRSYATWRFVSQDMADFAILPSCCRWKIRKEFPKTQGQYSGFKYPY
Experimental: (§3) human or rat P2X7-1321N1 cells were collected and frozen @−80° C. On the day of the experiment, cell membrane preparations were made according to standard published methods. […] The assay was terminated by filtration (GF/B filters pre-soaked with 0.3% PEI) and washed with washing buffer (Tris-HCl 50 mM). The IC50 generated in the binding assay was corrected for tracer concentration and affinity of the tracer to derive at the affinity (Ki) of the test compounds. […] For analysis, each concentration point is averaged from triplicate values and the averaged values are plotted on Graphpad Prism.

human P2X7 [3] = biological target: T1, human P2X7; test: P2X7 antagonism in human PBMCs (IL-1β release after LPS + Bz-ATP, ELISA); assay type: cell-based
Experimental: (§4) P2X7 Antagonism in Human Peripheral Blood Mononuclear Cells (PBMCs) and Human Whole Blood.
Human blood was collected using a blood donor program. PBMCs were isolated from blood using a Ficoll density gradient technique. Briefly, blood was laid on Ficoll solution and centrifuged at RT for 20 minutes at 2000 rpm. The buffy layer (between red blood cells and plasma) was carefully collected by aspiration, washed with PBS and centrifuged again at 1500 rpm for 15 minutes. The resulting cell pellet was washed and plated on 96 well-plates for experiments. For the Human Whole Blood experiments, 150 μl of human blood was platted on 96 well-plates. Lipopolysaccharide (LPS) (30 ng/ml) was added to each well and incubated for 1 hour. Test compounds were then added and incubated for 30 minutes. The P2X7 agonist, 2′(3′)-O-(4-benzoylbenzoyl) adenosine 5′ triphosphate (Bz-ATP) was then added at a final concentration of 0.5 mM (PBMC) or 1 mM (blood). Cells were incubated for an additional 1.5 hours. At that point, supernatant was collected and stored for IL-1β assay using manufacturer's protocol for enzyme-linked immunosorbent assay (ELISA). Data was expressed as percent control, where control is defined as the difference in IL-1β release in LPS+Bz-ATP samples and LPS only samples. Data was plotted as response (% control) versus concentration to generate IC50 values. […] Data are analyzed and graphed on Graphpad Prism 5. For analysis, each concentration point is averaged from triplicate values and the averaged values are plotted on Graphpad Prism.

rat P2X7 [4] = biological target: T2, rat P2X7; test: Ca2+ flux (FLIPR) in 1321N1 cells expressing recombinant rat P2X7; assay type: cell-based;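 further: Calcium-4 dye fluorescence change read 180 s after agonist addition, with cells preincubated 30 min with compound and dye in 96-well plates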
Experimental: as §1, §2

human P2X7 [5] = biological target: T1, human P2X7; test: Radioligand binding ([3H]A-804598), human P2X7-1321N1 cell membranes
Experimental: as §3

human P2X7 [6] = biological target: T1, human P2X7; test: P2X7 antagonism in human whole blood (IL-1β release after LPS + Bz-ATP, ELISA); assay type: cell-based; settings: LPS 30 ng/ml + 1 mM Bz-ATP
Experimental: as §4
Human blood was collected using a blood donor program. PBMCs were isolated from blood using a Ficoll density gradient technique. Briefly, blood was laid on Ficoll solution and centrifuged at RT for 20 minutes at 2000 rpm. The buffy layer (between red blood cells and plasma) was carefully collected by aspiration, washed with PBS and centrifuged again at 1500 rpm for 15 minutes. The resulting cell pellet was washed and plated on 96 well-plates for experiments. For the Human Whole Blood experiments, 150 μl of human blood was platted on 96 well-plates. Lipopolysaccharide (LPS) (30 ng/ml) was added to each well and incubated for 1 hour. Test compounds were then added and incubated for 30 minutes. The P2X7 agonist, 2′(3′)-O-(4-benzoylbenzoyl) adenosine 5′ triphosphate (Bz-ATP) was then added at a final concentration of 0.5 mM (PBMC) or 1 mM (blood). Cells were incubated for an additional 1.5 hours. At that point, supernatant was collected and stored for IL-1β assay using manufacturer's protocol for enzyme-linked immunosorbent assay (ELISA). Data was expressed as percent control, where control is defined as the difference in IL-1β release in LPS+Bz-ATP samples and LPS only samples. […] Data are analyzed and graphed on Graphpad Prism 5. […]

[7] = 1321N1 cells, recombinant human P2X7, 250 μM BzATP
[8] = human PBMCs, test compound 10 μM
[9] = 1321N1 cells, recombinant rat P2X7, 250 μM BzATP
[10] = [3H]A-804598, human P2X7-1321N1 membranes
[11] = Ca2+ flux, 250 μM BzATP, human P2X7 1321N1 cells
[12] = 10 μM test compound, human PBMCs, LPS + Bz-ATP
[13] = Ca2+ flux, 250 μM BzATP, rat P2X7 1321N1 cells
[14] = human P2X7-1321N1 membranes, tritiated A-804598

T1 sequence (Q99572 whole entry): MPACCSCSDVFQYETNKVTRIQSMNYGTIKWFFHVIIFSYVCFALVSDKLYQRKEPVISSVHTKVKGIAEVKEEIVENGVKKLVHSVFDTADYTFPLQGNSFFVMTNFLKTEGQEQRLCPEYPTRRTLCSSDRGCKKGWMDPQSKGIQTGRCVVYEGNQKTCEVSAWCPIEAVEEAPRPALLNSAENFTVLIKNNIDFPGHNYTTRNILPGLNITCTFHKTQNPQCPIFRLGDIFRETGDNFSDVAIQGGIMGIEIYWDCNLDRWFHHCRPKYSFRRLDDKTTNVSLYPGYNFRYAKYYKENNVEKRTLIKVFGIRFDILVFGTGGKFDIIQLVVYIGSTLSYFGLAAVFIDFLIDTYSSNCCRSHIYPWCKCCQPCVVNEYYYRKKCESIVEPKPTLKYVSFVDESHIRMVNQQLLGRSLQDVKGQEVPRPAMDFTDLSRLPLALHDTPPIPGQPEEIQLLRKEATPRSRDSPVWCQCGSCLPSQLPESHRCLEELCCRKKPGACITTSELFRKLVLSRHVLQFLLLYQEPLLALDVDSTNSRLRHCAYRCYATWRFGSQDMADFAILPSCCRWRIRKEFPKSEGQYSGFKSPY

| Compound | IC50 (human P2X7 [1]; [7]) | Ki (rat P2X7 [2]) | PBMC 10 μM (% control) (human P2X7 [3]; [8]) | PBMC 10 μM (% control) (human P2X7 [3]; test compound 10 μM, LPS 30 ng/ml + 0.5 mM Bz-ATP) | IC50 (rat P2X7 [4]; [9]) | Ki (human P2X7 [5]; [10]) | IC50 (human P2X7 [1]; [11]) | PBMC 10 μM (% control) (human P2X7 [3]; [12]) | IC50 (rat P2X7 [4]; [13]) | IC50 (human P2X7 [6]) | Ki (human P2X7 [5]; [14]) |
| --- | --- | --- | --- | --- | --- | --- | --- | --- | --- | --- | --- |
| C[C@@H]1c2nnn(-c3ncccn3)c2CCN1C(=O)c1cccc(C(F)(F)F)c1F (single isomer, unassigned) [Example 271, (R*)-(2-fluoro-3-(trifluoromethyl)phenyl)(4-methyl-1-(pyrimidin-2-yl)-6,7-dihydro-1H-[1,2,3]triazolo[4,5-c]pyridin-5(4H)-yl)methanone] | 1.7 nM | 1.6 nM | 14.3 % control | −3.7 % control | 20 nM |  |  |  |  |  |  |
| CC1c2n[nH]c(-c3ccnn3C)c2CCN1C(=O)c1cccc(C(F)(F)F)c1Cl (stereo not shown) [Example 437, (2-chloro-3-(trifluoromethyl)phenyl)(7-methyl-3-(1-methyl-1H-pyrazol-5-yl)-4,5-dihydro-2H-pyrazolo[3,4-c]pyridin-6(7H)-yl)methanone] |  |  |  |  |  | 144 nM | 240 nM | −11.7 % control | 14600 nM |  |  |
| CC1c2n[nH]c(-c3ncccn3)c2CCN1C(=O)c1cccc(Cl)c1Cl (stereo not shown) [Example 431, (2,3-dichlorophenyl)(7-methyl-3-(pyrimidin-2-yl)-4,5-dihydro-2H-pyrazolo[3,4-c]pyridin-6(7H)-yl)methanone] |  |  |  |  |  | 12.3 nM | 6 nM | −6.4 % control | 320 nM |  |  |
| Cc1ccnc(-n2nnc3c2CCN(C(=O)c2cccc(C(F)(F)F)c2Cl)[C@@H]3C)n1 (single isomer, unassigned) [Example 235, (4R*)-(2-Chloro-3-(trifluoromethyl)phenyl)(4-methyl-1-(4-methylpyrimidin-2-yl)-6,7-dihydro-1H-[1,2,3]triazolo[4,5-c]pyridin-5(4H)-yl)methanone] |  |  | −3.7 % control |  |  |  |  |  |  | 17 nM |  |
| CC1c2n[nH]c(-c3ccc(F)cc3)c2CCN1C(=O)c1cccc(C(F)(F)F)c1Cl (stereo not shown) [Example 434, (2-chloro-3-(trifluoromethyl)phenyl)(3-(4-fluorophenyl)-7-methyl-4,5-dihydro-2H-pyrazolo[3,4-c]pyridin-6(7H)-yl)methanone] |  |  |  |  |  | 47.9 nM | 43.5 nM | 3.1 % control | 432 nM |  |  |
| C[C@@H]1c2nnn(-c3cccc(C(F)(F)F)n3)c2CCN1C(=O)c1cccc(C(F)(F)F)c1Cl (single isomer, unassigned) [Example 379, (R*)-(2-chloro-3-(trifluoromethyl)phenyl)(4-methyl-1-(6-(trifluoromethyl)pyridin-2-yl)-6,7-dihydro-1H-[1,2,3]triazolo[4,5-c]pyridin-5(4H)yl)methanone] | 113 nM |  | 3.8 % control |  | 47.4 nM |  |  |  |  |  | 200 nM |
| CC1c2nnn(-c3cccc(C(F)(F)F)n3)c2CCN1C(=O)c1cccc(C(F)(F)F)c1Cl (stereo not shown) [Example 378, (2-chloro-3-(trifluoromethyl)phenyl)(4-methyl-1-(6-(trifluoromethyl)pyridin-2-yl)-6,7-dihydro-1H-[1,2,3]triazolo[4,5-c]pyridin-5(4H)-yl)methanone] | 78.9 nM |  | −0.1 % control |  | 137 nM |  |  |  |  |  | 158 nM |
| Cc1cc(-n2nnc3c2CCN(C(=O)c2ccnc(C(F)(F)F)c2F)[C@@H]3C)ncc1F (single isomer, unassigned) [Example 368, (R*)-(3-fluoro-2-(trifluoromethyl)pyridin-4-yl)(1-(5-fluoro-4-methylpyridin-2-yl)-4-methyl-6,7-dihydro-1H-[1,2,3]triazolo[4,5-c]pyridin-5(4H)-yl)methanone] | 22.6 nM |  | −2.3 % control |  | 235 nM |  |  |  |  |  | 39.8 nM |
| C[C@H]1Cc2c(nnn2-c2ccn[nH]2)CN1C(=O)c1cccc(C(F)(F)F)c1F (single isomer, unassigned) [Example 349, (S*)-(2-fluoro-3-(trifluoromethyl)phenyl)(6-methyl-1-(1H-pyrazol-5-yl)-6,7-dihydro-1H-[1,2,3]triazolo[4,5-c]pyridin-5(4H)-yl)methanone] | 2.7 nM |  | 0.7 % control |  | 2.2 nM |  |  |  |  |  | 7.9 nM |
| Cc1ccnc(-n2nnc3c2CCN(C(=O)c2cccc(Cl)c2Cl)[C@H]3C)n1 (single isomer, unassigned) [Example 392, (S*)-(2,3-dichlorophenyl)(4-methyl-1-(4-methylpyrimidin-2-yl)-6,7-dihydro-1H-[1,2,3]triazolo[4,5-c]pyridin-5(4H)-yl)methanone] | 3.6 nM |  | 14.4 % control |  | 47.3 nM |  |  |  |  |  | 4 nM |
| Cc1cc(-n2nnc3c2CCN(C(=O)c2ccnc(C(F)(F)F)c2Cl)C3C)ncc1F (stereo not shown) [Example 370, (3-chloro-2-(trifluoromethyl)pyridin-4-yl)(1-(5-fluoro-4-methylpyridin-2-yl)-4-methyl-6,7-dihydro-1H-[1,2,3]triazolo[4,5-c]pyridin-5(4H)-yl)methanone] | 59.7 nM |  | −2.2 % control |  | 256 nM |  |  |  |  |  | 63.1 nM |
| Cc1cc(-n2nnc3c2CCN(C(=O)c2ccnc(C(F)(F)F)c2Cl)[C@@H]3C)ncc1F (single isomer, unassigned) [Example 371, (R*)-(3-chloro-2-(trifluoromethyl)pyridin-4-yl)(1-(5-fluoro-4-methylpyridin-2-yl)-4-methyl-6,7-dihydro-1H-[1,2,3]triazolo[4,5-c]pyridin-5(4H)-yl)methanone] | 4.3 nM | 47.3 nM | −2.3 % control |  | 42.5 nM |  |  |  |  |  | 17.6 nM |
| CC1c2nnn(-c3ncc[nH]3)c2CCN1C(=O)c1cccc(C(F)(F)F)c1Cl (stereo not shown) [Example 393, (1-(1H-imidazol-2-yl)-4-methyl-6,7-dihydro-1H-[1,2,3]triazolo[4,5-c]pyridin-5(4H)-yl)(2-chloro-3-(trifluoromethyl)phenyl)methanone] | 51.2 nM |  | 8.5 % control |  | 11100 nM |  |  |  |  |  | 89.1 nM |
| CC1c2n[nH]c(-c3ccc(F)cn3)c2CCN1C(=O)c1cccc(C(F)(F)F)c1Cl (stereo not shown) [Example 430, (2-chloro-3-(trifluoromethyl)phenyl)(3-(5-fluoropyridin-2-yl)-7-methyl-4,5-dihydro-2H-pyrazolo[3,4-c]pyridin-6(7H)-yl)methanone] |  |  |  |  |  | 36.3 nM | 70.8 nM | −4.0 % control | 158 nM |  |  |
| Cc1c(C(=O)N2Cc3nnn(-c4ccn[nH]4)c3C[C@H]2C)cccc1C(F)(F)F (single isomer, unassigned) [Example 346, (R*)-(6-methyl-1-(1H-pyrazol-3-yl)-6,7-dihydro-1H-[1,2,3]triazolo[4,5-c]pyridin-5(4H)-yl)(2-methyl-3-(trifluoromethyl)phenyl)methanone] | 6.5 nM |  | −2.3 % control |  | 2.2 nM |  |  |  |  |  | 10 nM |
| Cc1cc(-n2nnc3c2CCN(C(=O)c2ccnc(C(F)(F)F)c2F)C3C)ncc1F (stereo not shown) [Example 367, (3-fluoro-2-(trifluoromethyl)pyridin-4-yl)(1-(5-fluoro-4-methylpyridin-2-yl)-4-methyl-6,7-dihydro-1H-[1,2,3]triazolo[4,5-c]pyridin-5(4H)-yl)methanone] | 75.7 nM |  | 0.9 % control |  | 2150 nM |  |  |  |  |  | 115 nM |
